According to ChEMBL document CHEMBL1221163, “Monocarboxylate transporter MCT1 is a target for immunosuppression” (Nat Chem Biol, 2005):
pIC50, pKi: −log10 of the molar value. Calls of active or inactive are those of the source. The calls are words filed in the database; no cut-off is given here.

Experiments:
[1] = target: T1, Monocarboxylate transporter 1 (Homo sapiens, UniProt P53985); assay: Displacement of [3H]5-[(3-hydroxypropyl)thio]-3-methyl-1-[2-(methyl-t)propyl-2,3-t2]-6-(1-naphthalenylmethyl)-1H-pyrrolo[3,4-d]pyrimidine-2,4(3H,6H)-dione from MCT1 in human Jurkat cell membranes
T1 sequence (P53985 whole entry): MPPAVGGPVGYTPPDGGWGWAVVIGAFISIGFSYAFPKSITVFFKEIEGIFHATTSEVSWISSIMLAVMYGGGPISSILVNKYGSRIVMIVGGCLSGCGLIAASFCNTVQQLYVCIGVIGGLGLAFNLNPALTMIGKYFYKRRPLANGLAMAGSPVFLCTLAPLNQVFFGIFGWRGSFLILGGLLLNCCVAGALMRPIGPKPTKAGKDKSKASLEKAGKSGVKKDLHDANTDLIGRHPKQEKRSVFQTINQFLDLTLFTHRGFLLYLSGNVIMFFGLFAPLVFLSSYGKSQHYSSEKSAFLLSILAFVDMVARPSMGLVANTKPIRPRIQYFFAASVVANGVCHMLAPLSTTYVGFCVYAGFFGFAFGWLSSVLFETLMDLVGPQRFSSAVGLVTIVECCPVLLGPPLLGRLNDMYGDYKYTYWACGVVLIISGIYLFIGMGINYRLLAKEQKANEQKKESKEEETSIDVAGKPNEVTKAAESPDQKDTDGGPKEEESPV

[2] = target: T1, Monocarboxylate transporter 1; assay: Displacement of [3H]5-[(3-hydroxypropyl)thio]-3-methyl-1-[2-(methyl-t)propyl-2,3-t2]-6-(1-naphthalenylmethyl)-1H-pyrrolo[3,4-d]pyrimidine-2,4(3H,6H)-dione from human MCT1 expressed in INS1 cell membrane; assay type: cell membranes
T-cell [3] = assay: Inhibition of DNA synthesis in PMA-ionomycin stimulated human T cells after 4 hrs by [3H]thymidine incorporation assay; assay type: functional, cell-based
T-cell [4] = assay: Reduction in extracellular lactate production in PMA-ionomycin stimulated human T cells after 4 hrs; assay type: functional, cell-based
T-cell [5] = assay: Increase in intracellular lactate production in PMA-ionomycin stimulated human T cells after 4 hrs; assay type: functional, cell-based
[6] = Antiproliferative activity against human T cells assessed as inhibition of PMA-ionomycin stimulated cell proliferation after 3 days by [3H]thymidine incorporation assay; assay type: functional, cell-based
HUVEC [7] = assay: Antiproliferative activity against human HUVEC assessed as inhibition of acidic FGF-stimulated cell proliferation by fluorimetric assay; assay type: functional, cell-based
HUVEC [8] = assay: Antiproliferative activity against human HUVEC assessed as inhibition of basic FGF-stimulated cell proliferation by fluorimetric assay; assay type: functional, cell-based
[9] = Antiproliferative activity against human primary epidermal keratinocytes assessed as inhibition of cell proliferation by fluorimetric assay; assay type: functional, cell-based; conditions: Keratinocyte
HEK293 [10] = assay: Antiproliferative activity against HEK293 cells assessed as inhibition of cell proliferation by fluorimetric assay; assay type: functional, cell-based; conditions: Homo sapiens
THP-1 [11] = assay: Antiproliferative activity against human THP1 cells assessed as inhibition of cell proliferation by fluorimetric assay; assay type: functional, cell-based
K562 [12] = assay: Antiproliferative activity against human K562 cells assessed as inhibition of cell proliferation by fluorimetric assay; assay type: functional, cell-based
HT-29 [13] = assay: Antiproliferative activity against human HT-29 cells assessed as inhibition of cell proliferation by fluorimetric assay; assay type: functional, cell-based
SW480 [14] = assay: Antiproliferative activity against human SW480 cells assessed as inhibition of cell proliferation by fluorimetric assay; assay type: functional, cell-based
ZR-75-1 [15] = assay: Antiproliferative activity against human ZR-75-1 cells assessed as inhibition of cell proliferation by fluorimetric assay; assay type: functional, cell-based
PANC-1 [16] = assay: Antiproliferative activity against human PANC1 cells assessed as inhibition of cell proliferation by fluorimetric assay; assay type: functional, cell-based
T-24 [17] = assay: Antiproliferative activity against human T24 cells assessed as inhibition of cell proliferation by fluorimetric assay; assay type: functional, cell-based
[18] = Antiproliferative activity against human KIT225 cells assessed as inhibition of IL2-stimulated cell proliferation by fluorimetric assay; assay type: functional, cell-based
HUVEC [19] = assay: Antiproliferative activity against human HUVEC assessed as inhibition of acidic FGF-stimulated cell proliferation at 1 uM by fluorimetric assay; assay type: functional
HUVEC [20] = assay: Antiproliferative activity against human HUVEC assessed as inhibition of basic FGF-stimulated cell proliferation at 1 uM by fluorimetric assay; assay type: functional
[21] = Antiproliferative activity against human primary epidermal keratinocytes assessed as inhibition of cell proliferation at 1 uM by fluorimetric assay; assay type: functional; conditions: Keratinocyte
HEK293 [22] = assay: Antiproliferative activity against HEK293 cells assessed as inhibition of cell proliferation at 1 uM by fluorimetric assay; assay type: functional; conditions: Homo sapiens
THP-1 [23] = assay: Antiproliferative activity against human THP1 cells assessed as inhibition of cell proliferation at 1 uM by fluorimetric assay; assay type: functional
K562 [24] = assay: Antiproliferative activity against human K562 cells assessed as inhibition of cell proliferation at 1 uM by fluorimetric assay; assay type: functional
HT-29 [25] = assay: Antiproliferative activity against human HT-29 cells assessed as inhibition of cell proliferation at 1 uM by fluorimetric assay; assay type: functional
SW480 [26] = assay: Antiproliferative activity against human SW480 cells assessed as inhibition of cell proliferation at 1 uM by fluorimetric assay; assay type: functional
ZR-75-1 [27] = assay: Antiproliferative activity against human ZR-75-1 cells assessed as inhibition of cell proliferation at 1 uM by fluorimetric assay; assay type: functional
PANC-1 [28] = assay: Antiproliferative activity against human PANC1 cells assessed as inhibition of cell proliferation at 1 uM by fluorimetric assay; assay type: functional
T-24 [29] = assay: Antiproliferative activity against human T24 cells assessed as inhibition of cell proliferation at 1 uM by fluorimetric assay; assay type: functional
[30] = Antiproliferative activity against human KIT225 cells assessed as inhibition of IL2-stimulated cell proliferation at 1 uM by fluorimetric assay; assay type: functional
T-cell [31] = assay: Antiproliferative activity against human T cells assessed as inhibition of PMA-ionomycin stimulated cell proliferation by [3H]thymidine incorporation assay; assay type: functional, cell-based
T-cell [32] = assay: Antiproliferative activity against Lewis rat T cells assessed as inhibition of PMA-ionomycin stimulated cell proliferation by [3H]thymidine incorporation assay; assay type: functional, cell-based
PBMC = assay: Antiproliferative activity against human PBMC assessed as inhibition of PMA/ionomycin-stimulated cell proliferation by [3H]thymidine incorporation assay; assay type: functional, cell-based
Rattus norvegicus [33] = assay: Inhibition of graft-versus-host response-induced lymph node expansion in DA/Lewis recipient rat administered once daily through subcutaneous route; assay type: functional; conditions: sc
[34] = target: T2, Monocarboxylate transporter 3 (Homo sapiens) (UniProt O95907); assay: Inhibition of human MCT3 expressed in INS1 cells assessed as reduction in intracellular acidification at 100 nM after 1 hr by L-Lactate uptake based BCECF staining; assay type: cell-based
T2 sequence (whole entry): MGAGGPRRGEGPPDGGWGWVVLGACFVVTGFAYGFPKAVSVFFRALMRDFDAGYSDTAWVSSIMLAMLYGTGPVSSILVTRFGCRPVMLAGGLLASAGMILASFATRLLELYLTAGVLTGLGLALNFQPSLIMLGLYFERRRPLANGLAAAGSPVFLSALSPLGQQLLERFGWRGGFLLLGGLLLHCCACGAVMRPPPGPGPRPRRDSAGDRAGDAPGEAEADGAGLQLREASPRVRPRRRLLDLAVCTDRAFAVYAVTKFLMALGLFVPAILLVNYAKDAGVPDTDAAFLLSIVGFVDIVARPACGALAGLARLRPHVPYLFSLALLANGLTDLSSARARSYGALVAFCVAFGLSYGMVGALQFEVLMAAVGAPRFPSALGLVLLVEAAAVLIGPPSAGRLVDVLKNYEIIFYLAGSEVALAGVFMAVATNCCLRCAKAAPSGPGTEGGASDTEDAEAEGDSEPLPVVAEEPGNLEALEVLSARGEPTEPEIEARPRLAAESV

[35] = target: T3, Monocarboxylate transporter 4 (Homo sapiens) (UniProt O15427); assay: Inhibition of human MCT4 expressed in INS1 cells assessed as reduction in intracellular acidification at 100 nM after 1 hr by L-Lactate uptake based BCECF staining; assay type: cell-based
T3 sequence (whole entry): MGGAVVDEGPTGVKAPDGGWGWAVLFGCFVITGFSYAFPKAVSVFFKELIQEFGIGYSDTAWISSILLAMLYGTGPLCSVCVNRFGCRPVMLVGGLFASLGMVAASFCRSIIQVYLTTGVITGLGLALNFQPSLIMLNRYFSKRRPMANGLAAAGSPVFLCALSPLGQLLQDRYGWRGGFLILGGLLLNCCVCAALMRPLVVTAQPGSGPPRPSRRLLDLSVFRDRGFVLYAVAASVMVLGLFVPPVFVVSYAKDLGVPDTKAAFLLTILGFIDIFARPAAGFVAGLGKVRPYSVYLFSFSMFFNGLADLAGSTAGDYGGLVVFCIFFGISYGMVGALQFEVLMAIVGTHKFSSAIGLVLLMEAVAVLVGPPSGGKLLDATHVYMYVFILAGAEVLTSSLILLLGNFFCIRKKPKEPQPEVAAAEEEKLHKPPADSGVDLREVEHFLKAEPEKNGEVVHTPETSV

T-cell [36] = assay: Inhibition of conversion of [1,2-13C2]glucose into [2,3-13C2]lactate in PMA-ionomycin stimulated human T cells at 10 nM after 6 hrs by GC-MS method; assay type: functional, cell-based
Rattus norvegicus [37] = organism: Rattus norvegicus; conditions: DA/Lewis, 4 mg/kg
T-cell [38] = conditions: Homo sapiens, 10 uM
T-cell [39] = conditions: Homo sapiens, 10 uM; remark: listed apart in the source
T-cell [40] = conditions: Homo sapiens, 50 nM

`CC(C)Cn1c(=O)n(C)c(=O)c2c(C(=O)N3CC=CC3)c(Cc3ccccc3C(F)(F)F)sc21` gave a pKi [1] of 8.47, a Ki ([2]; read-out: pKi (converted)) of 10.7 nM and a pIC50 (T-cell [3]) of 7.93. It also gave a pIC50 (T-cell [4]) of 7.99, a pIC50 (T-cell [5]) of 8.32 and a pIC50 [6] of 7.92.
With `CC(C)Cn1c(=O)n(C)c(=O)c2c(SCCCO)c(Cc3cccc4ccccc34)sc21` the pIC50 (HUVEC [7]) was < 6.00, the pIC50 (HUVEC [8]) was < 6.00 and the pIC50 [9] was < 6.00. For the same molecule, the pIC50 (HEK293 [10]) was < 6.00, the pIC50 (THP-1 [11]) was < 6.00 and the pIC50 (K562 [12]) was < 6.00. The pIC50 (HT-29 [13]) was < 6.00, the pIC50 (SW480 [14]) was < 6.00 and the pIC50 (ZR-75-1 [15]) was < 6.00. The pIC50 (PANC-1 [16]) was < 6.00, the pIC50 (T-24 [17]) was < 6.00 and the pIC50 [18] was 8.96. The inhibition at 1 µM (HUVEC [19]) was < 20%, the inhibition at 1 µM (HUVEC [20]) was < 20% and the inhibition at 1 µM [21] was < 20%. For the same molecule, the inhibition at 1 µM (HEK293 [22]) was < 20%, the inhibition at 1 µM (THP-1 [23]) was < 20% and the inhibition at 1 µM (K562 [24]) was < 20%. The inhibition at 1 µM (HT-29 [25]) was < 20%, the inhibition at 1 µM (SW480 [26]) was < 20% and the inhibition at 1 µM (ZR-75-1 [27]) was < 20%. The inhibition at 1 µM (PANC-1 [28]) was < 20%, the inhibition at 1 µM (T-24 [29]) was < 20% and the inhibition at 1 µM [30] was 61%. For the same molecule, the inhibition (T-cell [31]) was “Active”, the inhibition (T-cell [32]) was “Active” and the inhibition (PBMC) was “Active”. The ED50 (Rattus norvegicus [33]) was 1.4 mg/kg/day, the inhibition [34] was “inactive” and the inhibition [35] was “inactive”. For the same molecule, the pIC50 (T-cell [5]) was 9.39, the pIC50 [6] was 9.63 and the inhibition (T-cell [36]) was “Active”. For the same molecule, the inhibition (Rattus norvegicus [37]) was “Active”, the inhibition (T-cell [38]) was “inactive” and the inhibition (T-cell [39]) was “inactive”. The inhibition (T-cell [40]) was “Active”.
With `CC(C)Cc1nn(C)c(=O)c2cn(Cc3ccc(N=[N+]=[N-])c([125I])c3)cc12` the pKi ([2]; read-out: Ki) was 7.64.
